{
  "source": "patent US20080021056A1",
  "about": "“Fused, Tricyclic Sulfonamide Inhibitors of Gamma Secretase” (priority 2006, published 2008)",
  "data": [
    {"biological_target": "T1, gamma-secretase (Homo sapiens, UniProt P49768)", "T1 construct": "partially purified extract of IMR-32 cell membranes as the gamma-secretase enzyme preparation; endogenous in cells; host or cells: IMR-32 cell membranes (partially purified extract)", "test": "Gamma-secretase APP enzyme assay", "format": "biochemical", "settings": "cleavage of MBP-C125 Swe substrate at the Aβ40 site; partially purified extract of IMR-32 cell membranes; ELISA", "description": "The gamma-secretase APP enzyme assay was designed to measure the specific proteolytic cleavage of an APP substrate (MBP-C125 Swe fusion protein) at the Aβ40 site. The assay used a partially purified extract of IMR-32 cell membranes as the gamma-secretase enzyme preparation and a recombinant fusion protein containing the C-terminal 125 amino acids of the Swedish variant of the APP (MBP-C125swe) as the substrate. This assay involved two steps beginning with the enzymatic reaction generating a cleavage product that was captured with an immobilized antibody specific for the neo-epitope Aβ40 site. The captured cleavage product was then detected in a sandwich ELISA assay with a biotinylated reporter antibody that is specific to Aβ (17-28). Streptavidin-linked alkaline phosphatase was then added that would generate a fluorescent signal proportional to the amount of cleavage product. This assay was used to discover small molecule inhibitors of gamma-secretase.\nBriefly, a 149 mg/ml solution of BIGCHAP detergent was made with water at 42° C. and then rotated for 30 minutes at the same temperatures This warmed solution of BigCHAPS (N,N-Bis(3-D-gluconamidopropyl)cholamide) detergent was used to dissolve Brain Extract Type-V (lipid containing a minimum of 40% phosphatidylethanolamine) from Signa (St. Louis, Mo.) to a concentration of 8 mg/ml. This solution containing BigCHAPS and lipid at 8 mg/ml is then diluted to 0.53 mg/ml lipid with a pre-warmed solution of Hepes and sodium chloride. This final solution containing Hepes buffer, sodium chloride, BigCHAPS detergent and lipid is used to create working solutions of both gamma-secretase (25 Units) and the MBP-C125 substrate (0.05 mg/ml).\nGamma-secretase was then added to a 96-well micro-titre plate and then incubated with various concentrations of inhibitor for 30 minutes at 37° C. MBPC125 substrate was then added to initiate the reaction that would run for two hours at 37° C. The reaction was quenched with the addition of SDS to a final concentration of 0.1% and then 100 μl of the reaction mixture was transferred to a capture ELISA plate and incubated overnight at 4° C. Detection of the cleavage product was performed using a standard sandwich ELISA assay and quantified using a six point standard curve.", "units": {"IC50": "nM"}, "values": [
      {"molecule": "O=S(=O)(c1ccc(C(F)(F)F)nc1)N1c2ccccc2-c2[nH]ncc2C1C1CC1", "note": "(stereo not drawn) [4-cyclopropyl-5-(6-(trifluoromethyl)pyridin-3-ylsulfonyl)-4,5-dihydro-1H-pyrazolo[4,3-c]quinoline]", "IC50": "0.1 to 100"},
      {"molecule": "O=S(=O)(c1ccc(OC(F)(F)F)cc1)N1c2cc(F)c(F)cc2-c2[nH]ncc2C1C1CC1", "note": "(stereo not drawn) [4-cyclopropyl-7,8-difluoro-5-(4-(trifluoromethoxy)phenylsulfonyl)-4,5-dihydro-1H-pyrazolo[4,3-c]quinoline]", "IC50": "0.1 to 100"},
      {"molecule": "O=S(=O)(c1ccc(F)cc1)N1c2cc(F)c(F)cc2-c2n[nH]cc2C1C1CC1", "note": "(stereo not drawn) [4-cyclopropyl-7,8-difluoro-5-(4-fluorophenylsulfonyl)-4,5-dihydro-2H-pyrazolo[4,3-c]quinoline]", "IC50": "0.1 to 100"},
      {"molecule": "O=S(=O)(c1ccc(C(F)(F)F)cn1)N1c2cc(F)c(F)cc2-c2[nH]ncc2C1C1CC1", "note": "(stereo not drawn) [4-cyclopropyl-7,8-difluoro-5-(5-(trifluoromethyl)pyridin-2-ylsulfonyl)-4,5-dihydro-1H-pyrazolo[4,3-c]quinoline]", "IC50": "0.1 to 100"},
      {"molecule": "O=S(=O)(c1ccc(C(F)(F)F)nc1)N1c2cc(F)c(F)cc2-c2[nH]ncc2C1C1CC1", "note": "(stereo not drawn) [4-cyclopropyl-7,8-difluoro-5-(6-(trifluoromethyl)pyridin-3-ylsulfonyl)-4,5-dihydro-1H-pyrazolo[4,3-c]quinoline]", "IC50": "0.1 to 100"},
      {"molecule": "O=S(=O)(c1cccs1)N1c2cc(F)c(F)cc2-c2n[nH]cc2C1C1CC1", "note": "(stereo not drawn) [4-cyclopropyl-7,8-difluoro-5-(thiophen-2-ylsulfonyl)-4,5-dihydro-2H-pyrazolo[4,3-c]quinoline]", "IC50": "0.1 to 100"},
      {"molecule": "Cc1nc2c(s1)N(S(=O)(=O)c1ccc(C(F)(F)F)cc1)C(C1CC1)c1c[nH]nc1-2", "note": "(stereo not drawn) [4-cyclopropyl-7-methyl-5-(4-(trifluoromethyl)phenylsulfonyl)-4,5-dihydro-1H-pyrazolo[3,4-d]thiazolo[5,4-b]pyridine]", "IC50": "0.1 to 100"},
      {"molecule": "CCC1c2cn[nH]c2-c2cc(F)c(F)cc2N1S(=O)(=O)c1ccc(C(F)(F)F)cn1", "note": "(stereo not drawn) [4-ethyl-7,8-difluoro-5-(5-(trifluoromethyl)pyridin-2-ylsulfonyl)-4,5-dihydro-1H-pyrazolo[4,3-c]quinoline]", "IC50": "0.1 to 100"},
      {"molecule": "CC1c2c[nH]nc2-c2ccccc2N1S(=O)(=O)c1ccccn1", "note": "(stereo not drawn) [4-methyl-5-(pyridin-2-ylsulfonyl)-4,5-dihydro-2H-pyrazolo[4,3-c]quinoline]", "IC50": "101 to 500"},
      {"molecule": "CC1c2cn[nH]c2-c2ccccc2N1S(=O)(=O)c1cccnc1", "note": "(stereo not drawn) [4-methyl-5-(pyridin-3-ylsulfonyl)-4,5-dihydro-1H-pyrazolo[4,3-c]quinoline]", "IC50": "101 to 500"},
      {"molecule": "O=S(=O)(c1ccc(Cl)cc1)N1Cc2cn[nH]c2-n2ccnc21", "note": "[5-(4-chlorophenylsulfonyl)-4,5-dihydro-1H-imidazo[1,2-a]pyrazolo[4,3-e]pyrimidine]", "IC50": "101 to 500"},
      {"molecule": "O=S(=O)(c1ccc(Cl)cc1)N1c2ccccc2-c2n[nH]cc2C1C(F)(F)F", "note": "(stereo not drawn) [5-(4-chlorophenylsulfonyl)-4-(trifluoromethyl)-4,5-dihydro-2H-pyrazolo[4,3-c]quinoline]", "IC50": "0.1 to 100"},
      {"molecule": "O=S(=O)(c1ccc(Cl)cc1)N1c2nccn2-c2[nH]ncc2C1C1CC1", "note": "(stereo not drawn) [5-(4-chlorophenylsulfonyl)-4-cyclopropyl-4,5-dihydro-1H-imidazo[1,2-a]pyrazolo[4,3-e]pyrimidine]", "IC50": "101 to 500"},
      {"molecule": "O=S(=O)(c1ccc(Cl)cc1)N1c2ccccc2-c2n[nH]cc2C1C1CC1", "note": "(stereo not drawn) [5-(4-chlorophenylsulfonyl)-4-cyclopropyl-4,5-dihydro-2H-pyrazolo[4,3-c]quinoline]", "IC50": "0.1 to 100"},
      {"molecule": "CCC1c2cn[nH]c2-c2ccccc2N1S(=O)(=O)c1ccc(Cl)cc1", "note": "(stereo not drawn) [5-(4-chlorophenylsulfonyl)-4-ethyl-4,5-dihydro-1H-pyrazolo[4,3-c]quinoline]", "IC50": "0.1 to 100"},
      {"molecule": "CC(C)C1c2c[nH]nc2-c2ccccc2N1S(=O)(=O)c1ccc(Cl)cc1", "note": "(stereo not drawn) [5-(4-chlorophenylsulfonyl)-4-isopropyl-4,5-dihydro-2H-pyrazolo[4,3-c]quinoline]", "IC50": "0.1 to 100"},
      {"molecule": "CC1c2cn[nH]c2-c2ccc(O)cc2N1S(=O)(=O)c1ccc(Cl)cc1", "note": "(stereo not drawn) [5-(4-chlorophenylsulfonyl)-4-methyl-4,5-dihydro-1H-pyrazolo[4,3-c]quinolin-7-ol]", "IC50": "0.1 to 100"},
      {"molecule": "CC1c2c[nH]nc2-c2ccc(OC(=O)N(C)C)cc2N1S(=O)(=O)c1ccc(Cl)cc1", "note": "(stereo not drawn) [5-(4-chlorophenylsulfonyl)-4-methyl-4,5-dihydro-1H-pyrazolo[4,3-c]quinolin-7-yl dimethylcarbamate]", "IC50": "0.1 to 100"},
      {"molecule": "CC1c2cn[nH]c2-c2cc(O)c(O)cc2N1S(=O)(=O)c1ccc(Cl)cc1", "note": "(stereo not drawn) [5-(4-chlorophenylsulfonyl)-4-methyl-4,5-dihydro-1H-pyrazolo[4,3-c]quinoline-7,8-diol]", "IC50": "0.1 to 100"},
      {"molecule": "CC1c2c[nH]nc2-c2cc3c(cc2N1S(=O)(=O)c1ccc(Cl)cc1)OCO3", "note": "(stereo not drawn) [5-(4-chlorophenylsulfonyl)-4-methyl-4,5-dihydro-2H-[1,3]dioxolo[4,5-g]pyrazolo[4,3-c]quinoline]", "IC50": "0.1 to 100"},
      {"molecule": "CC1c2c[nH]nc2-c2ccncc2N1S(=O)(=O)c1ccc(Cl)cc1", "note": "(stereo not drawn) [5-(4-chlorophenylsulfonyl)-4-methyl-4,5-dihydro-2H-pyrazolo[4,3-c][1,7]naphthyridine]", "IC50": "0.1 to 100"},
      {"molecule": "CC1c2c[nH]nc2-c2cccnc2N1S(=O)(=O)c1ccc(Cl)cc1", "note": "(stereo not drawn) [5-(4-chlorophenylsulfonyl)-4-methyl-4,5-dihydro-2H-pyrazolo[4,3-c][1,8]naphthyridine]", "IC50": "0.1 to 100"},
      {"molecule": "CC1c2c[nH]nc2-c2cc(O)ccc2N1S(=O)(=O)c1ccc(Cl)cc1", "note": "(stereo not drawn) [5-(4-chlorophenylsulfonyl)-4-methyl-4,5-dihydro-2H-pyrazolo[4,3-c]quinolin-8-ol]", "IC50": "0.1 to 100"},
      {"molecule": "CC1c2c[nH]nc2-c2ccc(F)cc2N1S(=O)(=O)c1ccc(Cl)cc1", "note": "(stereo not drawn) [5-(4-chlorophenylsulfonyl)-7-fluoro-4-methyl-4,5-dihydro-2H-pyrazolo[4,3-c]quinoline]", "IC50": "0.1 to 100"},
      {"molecule": "O=c1c2cn[nH]c2c2cc(F)ccc2n1S(=O)(=O)c1ccc(Cl)cc1", "note": "[5-(4-chlorophenylsulfonyl)-8-fluoro-1H-pyrazolo[4,3-c]quinolin-4(5H)-one]", "IC50": "1000 to 10000"},
      {"molecule": "CC1c2c[nH]nc2-c2c(F)cccc2N1S(=O)(=O)c1ccc(Cl)cc1", "note": "(stereo not drawn) [5-(4-chlorophenylsulfonyl)-9-fluoro-4-methyl-4,5-dihydro-2H-pyrazolo[4,3-c]quinoline]", "IC50": "0.1 to 100"},
      {"molecule": "O=S(=O)(c1ccc(F)cc1)N1c2ncccc2-c2n[nH]cc2C1C(F)(F)F", "note": "(stereo not drawn) [5-(4-fluorophenylsulfonyl)-4-(trifluoromethyl)-4,5-dihydro-2H-pyrazolo[4,3-c][1,8]naphthyridine]", "IC50": "0.1 to 100"},
      {"molecule": "O=S(=O)(c1ccc(Cl)cn1)N1c2cc(F)c(F)cc2-c2[nH]ncc2C1C1CC1", "note": "(stereo not drawn) [5-(5-chloropyridin-2-ylsulfonyl)-4-cyclopropyl-7,8-difluoro-4,5-dihydro-1H-pyrazolo[4,3-c]quinoline]", "IC50": "0.1 to 100"},
      {"molecule": "O=S(=O)(c1ccc(Cl)cn1)N1c2ccc(F)cc2-c2n[nH]cc2C1C1CC1", "note": "(stereo not drawn) [5-(5-chloropyridin-2-ylsulfonyl)-4-cyclopropyl-8-fluoro-4,5-dihydro-1H-pyrazolo[4,3-c]quinoline]", "IC50": "0.1 to 100"},
      {"molecule": "O=S(=O)(c1ccc(Cl)s1)N1c2cc(F)c(F)cc2-c2n[nH]cc2C1C1CC1", "note": "(stereo not drawn) [5-(5-chlorothiophen-2-ylsulfonyl)-4-cyclopropyl-7,8-difluoro-4,5-dihydro-2H-pyrazolo[4,3-c]quinoline]", "IC50": "0.1 to 100"}
    ]}
  ]
}
